Values after ≈ are worked out from the molar mass of the structure shown.
Assays:
[1] = test system: Kasumi-1 (acute myeloid leukemia M2 type) cells; assay: MTT cell growth inhibition, leukemia cells; format: cell-based, human; conditions: Homo sapiens, Kasumi-1, 72 h, MTT
Description: (§1) Leukemia cell lines: leukemia cell lines: K562adr (drug-resistant, chronic myeloid leukemia, CML), NB4 (acute promyelocytic leukemia, AML), Kasumi-1 (acute myeloid leukemia M2 type, AML-M2), Jurkat (acute lymphoblastic leukemia, ALL), all of which were donated by Cancer Research Institute of Zhejiang University, China; and H9 (acute lymphoblastic leukemia, ALL), which was purchased from China Center for Type Culture Collection.
(§2) Reagents: The standard sample of fangchinoline (FAN) was purchased from Ci Yuan Biotechnology Co., Ltd., Shaanxi, China; and the 7-substituted fangchinoline derivatives according to the present invention.
(§3) 6000 well-growing leukemia cells were obtained and inoculated into wells of a 96-well cell culture plate. The culture medium was a RPMI-1640 cell culture medium containing 10% fetal bovine serum. After adding the 7-substituted fangchinoline derivatives of different concentrations the next day and mixing uniformly, the plate was placed in a carbon dioxide cell incubator (5% CO2) at 37° C. and incubating for 72 hours. Then the viable cell concentration was determined by the MTT method.

[2] = test system: H9 (acute lymphoblastic leukemia) cells; assay: MTT cell growth inhibition, leukemia cells; format: cell-based, human
Description: as §1, §2, §3

[3] = test system: Jurkat (acute lymphoblastic leukemia) cells; assay: MTT cell growth inhibition, leukemia cells; format: cell-based, human
Description: as §1, §2, §3

[4] = test system: PC-3 (prostate cancer) cells; assay: MTT cell growth inhibition, solid tumor cells; format: cell-based, human; conditions: Homo sapiens, PC-3, 72 h, MTT
Description: (§4) Hep-2 (laryngeal carcinoma), A549 (human lung cancer), CaES-17 (esophageal cancer cell), PC-3 (prostate cancer), CNE (nasopharyngeal carcinoma cell) and SK-OV-3 (ovarian cancer cell), all of which were purchased from China Center For Type Culture Collection; RKO (human colon adenocarcinoma cell), MGC-803 (human gastric cancer cell), MG-63 (osteosarcoma), and U87-MG (malignant glioma cell), all of which were purchased from Fuxiang Bio-tech Co. Ltd., Shanghai, China; PANC-1 (pancreatic cancer), Becap37 (human breast cancer cell), Hela (human cervical cancer cell) and Hep G2 (human liver cancer cell), all of which were donated by Cancer Research Institute of Zhejiang University, China.
as §3, with “human solid tumor” for “leukemia”, “DMEM High Glucose” for “a RPMI-1640”, “serum. The plate was placed in a carbon dioxide cell incubator (5% CO2) at 37° C. and incubated for 24 hours.” for “serum.”, “added with” for “adding the”, “concentration” for “concentrations the next day”, “incubated” for “incubating”

[5] = test system: PANC-1 (pancreatic cancer) cells; assay: MTT cell growth inhibition, solid tumor cells; format: cell-based, human; conditions: Homo sapiens, PANC-1, 72 h, MTT
Description: as §4
as §3, with “human solid tumor” for “leukemia”, “DMEM High Glucose” for “a RPMI-1640”, “serum. The plate was placed in a carbon dioxide cell incubator (5% CO2) at 37° C. and incubated for 24 hours.” for “serum.”, “added with” for “adding the”, “concentration” for “concentrations the next day”, “incubated” for “incubating”

[6] = test system: CNE (nasopharyngeal carcinoma) cells; assay: MTT cell growth inhibition, solid tumor cells; format: cell-based, human; conditions: Homo sapiens, CNE, 72 h, MTT
Description: as §4
as §3, with “human solid tumor” for “leukemia”, “DMEM High Glucose” for “a RPMI-1640”, “serum. The plate was placed in a carbon dioxide cell incubator (5% CO2) at 37° C. and incubated for 24 hours.” for “serum.”, “added with” for “adding the”, “concentration” for “concentrations the next day”, “incubated” for “incubating”

[7] = test system: CaEs-17 (esophageal cancer) cells; assay: MTT cell growth inhibition, solid tumor cells; format: cell-based, human; conditions: Homo sapiens, CaEs17, CaEs-17, 72 h, MTT
Description: as §4
as §3, with “human solid tumor” for “leukemia”, “DMEM High Glucose” for “a RPMI-1640”, “serum. The plate was placed in a carbon dioxide cell incubator (5% CO2) at 37° C. and incubated for 24 hours.” for “serum.”, “added with” for “adding the”, “concentration” for “concentrations the next day”, “incubated” for “incubating”

[8] = test system: SK-OV-3 (ovarian cancer) cells; assay: MTT cell growth inhibition, solid tumor cells; format: cell-based, human; conditions: Homo sapiens, SK-OV-3, 72 h, MTT
Description: as §4
as §3, with “human solid tumor” for “leukemia”, “DMEM High Glucose” for “a RPMI-1640”, “serum. The plate was placed in a carbon dioxide cell incubator (5% CO2) at 37° C. and incubated for 24 hours.” for “serum.”, “added with” for “adding the”, “concentration” for “concentrations the next day”, “incubated” for “incubating”

[9] = test system: tumor; assay: Antitumor activity compared with fangchinoline, overall statement; format: cell-based; conditions: tumor type not specified
[10] = test system: RPMI 8226 (multiple myeloma) cells; assay: MTT cell growth inhibition, multiple myeloma cells; format: cell-based, human; conditions: Homo sapiens, RPMI 8226, 72 h, MTT
Procedure: Myeloma cell lines: RPMI8226 (multiple myeloma), purchased from Fuxiang Bio-tech Co. Ltd., Shanghai, China.
as §3, with “well-growing” for “well-growing leukemia”, “incubated” for “incubating”

[11] = test system: Becap-37 (human breast cancer) cells; assay: MTT cell growth inhibition, solid tumor cells; format: cell-based; conditions: Homo sapiens, Becap-37, 72 h, MTT
Description: as §4
as §3, with “human solid tumor” for “leukemia”, “DMEM High Glucose” for “a RPMI-1640”, “serum. The plate was placed in a carbon dioxide cell incubator (5% CO2) at 37° C. and incubated for 24 hours.” for “serum.”, “added with” for “adding the”, “concentration” for “concentrations the next day”, “incubated” for “incubating”

[12] = test system: MG-63 (osteosarcoma) cells; assay: MTT cell growth inhibition, solid tumor cells; format: cell-based; conditions: Homo sapiens, MG-63, 72 h, MTT
Description: as §4
as §3, with “human solid tumor” for “leukemia”, “DMEM High Glucose” for “a RPMI-1640”, “serum. The plate was placed in a carbon dioxide cell incubator (5% CO2) at 37° C. and incubated for 24 hours.” for “serum.”, “added with” for “adding the”, “concentration” for “concentrations the next day”, “incubated” for “incubating”

[13] = test system: MGC-803 (human gastric cancer) cells; assay: MTT cell growth inhibition, solid tumor cells; format: cell-based; conditions: MGC-803, 72 h, MTT
Description: as §4
as §3, with “human solid tumor” for “leukemia”, “DMEM High Glucose” for “a RPMI-1640”, “serum. The plate was placed in a carbon dioxide cell incubator (5% CO2) at 37° C. and incubated for 24 hours.” for “serum.”, “added with” for “adding the”, “concentration” for “concentrations the next day”, “incubated” for “incubating”

[14] = test system: Hep G2 (human liver cancer) cells; assay: MTT cell growth inhibition, solid tumor cells; format: cell-based; conditions: Homo sapiens, HepG2, Hep G2, 72 h, MTT
Description: as §4
as §3, with “human solid tumor” for “leukemia”, “DMEM High Glucose” for “a RPMI-1640”, “serum. The plate was placed in a carbon dioxide cell incubator (5% CO2) at 37° C. and incubated for 24 hours.” for “serum.”, “added with” for “adding the”, “concentration” for “concentrations the next day”, “incubated” for “incubating”

[15] = test system: RKO (human colon adenocarcinoma) cells; assay: MTT cell growth inhibition, solid tumor cells; format: cell-based; conditions: Homo sapiens, RKO, 72 h, MTT
Description: as §4
as §3, with “human solid tumor” for “leukemia”, “DMEM High Glucose” for “a RPMI-1640”, “serum. The plate was placed in a carbon dioxide cell incubator (5% CO2) at 37° C. and incubated for 24 hours.” for “serum.”, “added with” for “adding the”, “concentration” for “concentrations the next day”, “incubated” for “incubating”

[16] = test system: Hela (human cervical cancer) cells; assay: MTT cell growth inhibition, solid tumor cells; format: cell-based; conditions: Homo sapiens, Hela, 72 h, MTT
Description: as §4
as §3, with “human solid tumor” for “leukemia”, “DMEM High Glucose” for “a RPMI-1640”, “serum. The plate was placed in a carbon dioxide cell incubator (5% CO2) at 37° C. and incubated for 24 hours.” for “serum.”, “added with” for “adding the”, “concentration” for “concentrations the next day”, “incubated” for “incubating”

[17] = test system: NB4 (acute promyelocytic leukemia) cells; assay: MTT cell growth inhibition, leukemia cells; format: cell-based; conditions: Homo sapiens, NB4, 72 h, MTT
Description: as §1, §2, §3

[18] = test system: K562/ADR (K562adr, drug-resistant chronic myeloid leukemia) cells; assay: MTT cell growth inhibition, leukemia cells; format: cell-based; conditions: Homo sapiens, K562/ADR, 72 h, MTT
Description: as §1, §2, §3

[19] = relative to fangchinoline, Table 1

COc1ccc2cc1Oc1ccc(cc1)C[C@H]1c3cc(c(OC)cc3CCN1C)Oc1c(OC(=O)c3ccc(N(C)C)cc3)c(OC)cc3c1[C@H](C2)N(C)CC3 [BS-FC-308]
IC50 ([1]; read-out: IC50): 0.81 µg/mL (≈ 1.07 µM) | IC90 ([1]; read-out: IC90): 1.9 µg/mL (≈ 2.51 µM) | IC50 ([2]; Homo sapiens, H9, 72 h, MTT, read-out: IC50): 0.7 µg/mL (≈ 0.926 µM) | IC90 ([2]; Homo sapiens, H9, 72 h, MTT, read-out: IC90): 1.8 µg/mL (≈ 2.38 µM) | anti-H9 activity increase over fangchinoline [2, 19]: > 3 fold | IC50 ([3]; Homo sapiens, Jurkat, 72 h, MTT, read-out: IC50): 0.36 µg/mL (≈ 0.476 µM) | IC90 ([3]; Homo sapiens, Jurkat, 72 h, MTT, read-out: IC90): 1.62 µg/mL (≈ 2.14 µM) | anti-Jurkat activity increase over fangchinoline [3, 19]: more than 4 fold | IC50 ([4]; read-out: IC50): 2.4 µg/mL (≈ 3.17 µM) | IC90 ([4]; read-out: IC90): 3.49 µg/mL (≈ 4.62 µM) | IC50 ([5]; read-out: IC50): 2.38 µg/mL (≈ 3.15 µM) | IC90 ([5]; read-out: IC90): 8.53 µg/mL (≈ 11.3 µM) | IC50 ([6]; read-out: IC50): 1.9 µg/mL (≈ 2.51 µM) | IC90 ([6]; read-out: IC90): 3.6 µg/mL (≈ 4.76 µM) | IC50 ([7]; read-out: IC50): 0.93 µg/mL (≈ 1.23 µM) | IC90 ([7]; read-out: IC90): 3.92 µg/mL (≈ 5.19 µM) | IC50 ([8]; read-out: IC50): 1.31 µg/mL (≈ 1.73 µM) | IC90 ([8]; read-out: IC90): 1.93 µg/mL (≈ 2.55 µM) | antitumor activity compared with that of fangchinoline [9]: significantly superior | IC50 ([10]; read-out: IC50): 0.12 µg/mL (≈ 0.159 µM) | IC90 ([10]; read-out: IC90): 0.25 µg/mL (≈ 0.331 µM) | IC50 ([11]; read-out: IC50): 1.03 µg/mL (≈ 1.36 µM) | IC90 ([11]; read-out: IC90): 1.95 µg/mL (≈ 2.58 µM) | IC50 ([12]; read-out: IC50): 1.3 µg/mL (≈ 1.72 µM) | IC90 ([12]; read-out: IC90): 1.8 µg/mL (≈ 2.38 µM) | IC50 ([13]; read-out: IC50): 0.57 µg/mL (≈ 0.754 µM) | IC90 ([13]; read-out: IC90): 1.99 µg/mL (≈ 2.63 µM) | IC50 ([14]; read-out: IC50): 1.12 µg/mL (≈ 1.48 µM) | IC90 ([14]; read-out: IC90): 4.35 µg/mL (≈ 5.75 µM) | IC50 ([15]; read-out: IC50): 0.71 µg/mL (≈ 0.939 µM) | IC90 ([15]; read-out: IC90): 1.51 µg/mL (≈ 2 µM) | IC50 ([16]; read-out: IC50): 0.89 µg/mL (≈ 1.18 µM) | IC90 ([16]; read-out: IC90): 1.9 µg/mL (≈ 2.51 µM) | IC50 ([17]; read-out: IC50): 0.37 µg/mL (≈ 0.489 µM) | IC90 ([17]; read-out: IC90): 0.98 µg/mL (≈ 1.3 µM) | IC50 ([18]; read-out: IC50): 0.08 µg/mL (≈ 0.106 µM) | IC90 ([18]; read-out: IC90): 0.47 µg/mL (≈ 0.622 µM)

— patent US9328122B2, “7-substituted Hanfangichin B derivative, and preparation method and use thereof” (HANGZHOU BENSHENG PHARMACEUTICAL CO., LTD., priority 2012, dated 2016)
